Data as given in the NIST ThermoML archive (doi:10.1016/j.jct.2019.03.035).
Numbers after ± are expanded uncertainties.

Key:
[1] = refractive index (other wavelength) (dimensionless); settings: 100 kPa, Liquid, Wavelength=632.8 nm, minimum deviation angle technique
[2] = refractive index (other wavelength) (dimensionless); xn = mol fraction of the nth substance listed; settings: 288.62 K; 100 kPa; Liquid; Wavelength=632.8 nm; minimum deviation angle technique; x2 = 0

refractive index ([1]; 285.51 K)	refractive index ([1]; 286.56 K)	refractive index ([1]; 287.57 K)	refractive index ([1]; 288.6 K)	refractive index ([1]; 288.62 K)	refractive index ([1]; 289.75 K)	refractive index ([1]; 290.67 K)	refractive index ([1]; 291.68 K)	refractive index ([1]; 292.74 K)	refractive index ([1]; 293.98 K)	refractive index [2]	refractive index ([1]; 285.47 K)	refractive index ([1]; 286.4 K)	refractive index ([1]; 287.49 K)	refractive index ([1]; 288.44 K)	refractive index ([1]; 289.45 K)	refractive index ([1]; 290.7 K)	refractive index ([1]; 291.77 K)	refractive index ([1]; 292.66 K)	refractive index ([1]; 293.89 K)	SMILES
1.4142 ± 0.0003	1.4137 ± 0.0003	1.4133 ± 0.0003	1.4128 ± 0.0003	1.4128 ± 0.0003	1.4123 ± 0.0003	1.4119 ± 0.0003	1.4114 ± 0.0003	1.411 ± 0.0003	1.4104 ± 0.0003											CCCCCCCCCC [decane]
										1.4128 ± 0.0003										CCCCCCCCCC [decane] + N#Cc1ccccc1
				1.5277 ± 0.0003							1.5293 ± 0.0003	1.5288 ± 0.0003	1.5283 ± 0.0003	1.5278 ± 0.0003	1.5274 ± 0.0003	1.5268 ± 0.0003	1.5262 ± 0.0003	1.5258 ± 0.0003	1.5252 ± 0.0003	N#Cc1ccccc1 [benzonitrile]
